GI50 and IC50 data for 2 compounds are collected here from ChEMBL document CHEMBL1152587, “Application of the McMurry coupling reaction in the synthesis of tri- and tetra-arylethylene analogues as potential cancer chemotherapeutic agents” (Bioorg Med Chem, 2009).

One assay has as its system DU-145. The assay can be described thus: Anticancer activity against human DU145 cells after 48 hrs by SRB assay. As to conditions: DU-145, 48 h. On the technique in general: The SRB assay estimates cell density from bound dye.
Assay [1] in a line: Inhibition of bovine tubulin polymerization after 20 mins by turbidimetrically.

Usually GI50 stands for the concentration at which growth is held to half of that of the control. Low readings indicate greater sensitivity of the cells, high ones lower sensitivity of the cells. Take `COc1ccc(/C=C\c2cc(OC)c(OC)c(OC)c2)cc1O` [COMBRETASTATIN A4]: the 50% growth inhibitory concentration (GI50) in the assay with DU-145 turned out to be 2 nM.

As a reminder, the IC50 is the point on the concentration scale where inhibition reaches its midpoint. Low readings indicate greater potency in that assay, high ones weaker potency in that assay. Compound `CC/C(=C(\c1ccccc1)c1ccc(OCCN(C)C)cc1)c1ccccc1` [TAMOXIFEN] showed an IC50 in assay [1] greater than 40000 nM.
